Test results taken from US8367737B2, “Method of using biothionol and biothionol-like compounds as anti-angiogenic agents” (Southern Research Institute, priority 2007, dated 2013).
Counter-ions that a name gives are not always drawn.

What was measured:
[1] = tested on: arterial endothelia, such as HAEC and HPAEC; experiment: Cell proliferation assay (CellTiter-Glo), arterial endothelia; assay type: cell-based; conditions: Homo sapiens; 72 hours of treatment, growth medium
Description: (§1) Human primary cell lines, arterial endothelia, such as HAEC and HPAEC, venous endothelia HUVEC (from Cambrex BioScience Rockland Inc.), and lung fibroblasts LL47 (from the American Type Culture Collection) are cultured by following the instruction and used to evaluate the target compounds for their differential activity against human endothelia verses fibroblasts by CellTiter-Glo Luminescent Cell viability Assay. This assay, generating luminescent signals, is based on quantification of ATP levels in cell cultures. Amount of ATP produced in cell culture reflects the number of viable cells. […] Cells are seeded in 96-well plates with their growth medium, about 5×10^3 cell per well. After 24 hours, various doses of the target compounds are added to the cultures, having four replicates for each dose. After 72 hours of treatment, CellTiter-Glo reagent is added to the cultures following the manufacturer's instruction and luminescence is measured. The control groups are given DMSO vehicle only. IC50s of target compounds for endothelia and fibroblasts proliferation in their growth medium are determined based on the dose response curve and plotted against the range of concentrations.

venous endothelia HUVEC = experiment: Cell proliferation assay (CellTiter-Glo), venous endothelia; assay type: cell-based; conditions: Homo sapiens, 72 hours of treatment, growth medium
Description: as §1

lung fibroblasts LL47 = experiment: Cell proliferation assay (CellTiter-Glo), fibroblasts; assay type: cell-based; conditions: Homo sapiens, Fibroblast; 72 hours of treatment, growth medium
Description: as §1

[2] = tested on: Endothelial cells (HUVEC); experiment: Endothelial cell migration assay; assay type: cell-based; conditions: Homo sapiens, read-out: Inhibition in Endothlial migration
Description: Endothelial cell migration is a key step of the angiogenesis process, which is crucial for on-site recruitment of blood vessel formation. The trans-well filter/inserts chamber of Biocoat Endothelial Cell Migration Angiogenesis System (BD Biosciences) is used for endothelial cell migration assay, which is a 24-Transwell chamber plate containing 3-μm pore size inserts coated with human fibronectin. The inserts are incubated at 37° C. with 0.1% bovine serum albumin containing endothelial cell basal medium for 1 hour. Endothelial cells (HUVEC) are starved with 0.1% bovine serum albumin in endothelial cell basal medium for 4 to 5 hours before the cell harvest and then seeded (1×10^5 per well) in upper chambers of the Transwell plate with various treatments in 100 ul of 0.1% bovine serum albumin in endothelial cell basal medium. The full growth medium that contains various chemoattractants is added in the lower chambers. The cells are allowed to migrate for 22±1 hours at 37° C. Unmigrated cells at the inside of the inserts are carefully removed with a Q-tip. Migrated cells at the lower part of the Transwell inserts are then fixed with 4% paraformaldehyde, stained with Hoechst 33342, and photographed under a fluorescent microscope. Three microscopic view fields of each filter/insert are analyzed for the number of migrated cells. Triplicate filter/insert chamber cultures are carried for each test concentration and control.

[3] = tested on: Endothelial cells (HUVEC); experiment: Endothelial tube formation assay; assay type: cell-based; conditions: Homo sapiens, read-out: Inhibition in Endothlia Tube-Formation
Description: Human endothelial cells are cultured in vitro on extracellular matrix, which stimulates the attachment and differentiation of endothelial cells into tubules. The endothelial tube formation assay is based on this phenomenon. Endothelial cells (HUVEC) are seeded (1.5×10^4 per well) in a 96-well plates coated with extracellular matrix and treated with the target compounds at different concentrations with the full growth medium in triplicate. The cells are allowed to form endothelial tubes at 37° C. for about 18 hours and photographed under an inverted light microscope. The tubule lengths are quantified using image analysis software, Image-Pro Plus (Media Cybernetics, Inc., Silver Spring, Md.). Data are expressed as average tube lengths of three view fields for each well and triplicate wells for each treatment condition. IC50 values are calculated based on the dose curve.

[4] = tested on: Chicken embryo chorioallantoic membrane; experiment: Chick chorioallantoic membrane (CAM) assay; assay type: in vivo; conditions: 10 μg; vascular density index
Source text: Chicken embryo chorioallantoic membrane provides an ideal in vivo model for the physiologic process of angiogenesis. Angiogenic modulators applied on methylcellulose discs placed on top of chicken embryo chorioallantoic membrane are able to alter the development of new blood vasculature. See Staton et al, Current Methods for Assaying Angiogenesis in vitro and in vivo, INT. J. EXP. PATHOL., 85:233-48 (2004), which is incorporated herein by reference in its entirety. The angiogenesis chorioallantoic membrane assay is used for ex vivo evaluation of the anti-angiogenic potential of synthetic compounds. Fertilized chicken eggs are incubated at 37.5° C. in a humidified egg incubator with forced air circulation. On embryo Day 3, eggs are cracked open and embryos are transferred into […] Petri plates to continue their development in a cell culture incubator at 37.5° C. Pre-made methylcellulose discs in about 2 mm in diameter are gently implanted on top of embryo chorioallantoic membrane on embryonic Day 5 and then testing compound in solution or control vehicle is applied on top of methylcellulose disc. The embryos are incubated for two more days in the cell culture incubator. The chorioallantoic membranes are examined and quantitatively analyzed for new blood vessel formation at embryonic Day 7. The treatment effects on angiogenesis are evaluated by determining vascular density index (VDI) of each CAM with viable chicken embryos. The VDI represents the number of intersections made by blood vessels with three equidistant concentric circles on the area covered by methylcellulose discs by using Image Pro Plus software. The data are expressed as average VDI based on the quantitative analysis for each treatment group (N≧5) with stander deviation.

| Structure (SMILES) | IC50 [1] | IC50 (venous endothelia HUVEC) | IC50 (lung fibroblasts LL47) | inhibition at 2 µM [2] | inhibition at 8 µM [2] | inhibition at 2 µM [3] | inhibition at 8 µM [3] | Inhibition in CAM Assay [4] |
| --- | --- | --- | --- | --- | --- | --- | --- | --- |
| Oc1c(Cl)cc(Cl)cc1Sc1cc(Cl)cc(Cl)c1O [Bithionol] | 2 µM | 6 µM | 10.5 µM | 5% | 100% | 19% | 38% | 30% |
| OCCN1CCN(CCCN2c3ccccc3Sc3ccc(Cl)cc32)CC1 [Perphenazine] | 4.2 µM | 11.1 µM | 10.8 µM | 43% | 46% | 7% | 22% | – |
| CCCCc1oc2ccccc2c1C(=O)c1cc(I)c(OCCN(CC)CC)c(I)c1 [Amiodarone hydrochloride] | – | – | – | 36% | 38% | 33% | 33% | 27% |
| CC(C)(C)c1ccc(C(O)CCCN2CCC(C(O)(c3ccccc3)c3ccccc3)CC2)cc1 (centres unmarked) [Terfenadine] | 3 µM | 5.5 µM | 7 µM | 34% | 100% | 20% | 43% | 28% |
| CN(C)CCCN1c2ccccc2CCc2ccc(Cl)cc21 [Clomipramine hydrochloride] | – | – | – | 58% | 63% | 12% | 26% | 19% |
| Cc1nc2sccn2c(=O)c1CCN1CCC(=C(c2ccc(F)cc2)c2ccc(F)cc2)CC1 [Ritanserin] | 11 µM | 10.5 µM | > 50 µM | 55% | 65% | 11% | 33% | 21% |
